Literature values, collected in patent US20040097717A1, “Control of aerial branching” (priority 2000, published 2004).

Tests used:
[1] = test system: lateral buds; conditions: exogenous application to lateral buds (Tames et al., 1979)
[2] = test system: Phaseolus vulgaris; conditions: decapitated Phaseolus vulgaris, IAA application (Knox and Wareing, 1984)

Structure (SMILES) | lateral bud elongation [1] | lateral bud elongation / decrease in ABA level after decapitation [2]
CC1=CC(=O)CC(C)(C)[C@@]1(O)/C=C/C(C)=C\C(=O)O [ABA, abscisic acid] | inhibited elongation | 
O=C(O)Cc1c[nH]c2ccccc12 [IAA] |  | reversed
